How the values were obtained:
[1] = Tonicity of 10% co-solvent solutions; assay type: physicochemical; conditions: solutions with 10% co-solvent
[2] = tested on: human heparinized whole blood (erythrocytes); assay: In vitro hemolysis test with co-solvents (study procedure, Drabkin's solution, absorbance 540 nm); conditions: for max. well tolerated co-solvent concent: co-solvent diluted with NaCl 0.9%, intersection of fitted sigmoidal curve with 5% hemolysis line, 10 min at 37° C.; for hemolysis value: human, 10 min, 10 % v/v
Procedure: A test was developed to determine the hemolytic activity of a pharmaceutical formulation. The test utilized fresh anticoagulated human blood. In general, the test was performed by diluting the pharmaceutical product with fresh saline, then mixing with an aliquot of fresh human whole blood. After incubating at 37° C., the test solutions were centrifuged, and the concentration of hemoglobin was measured in the supernatant using spectroscopic techniques.
To determine the 100% hemolysis value, equal volumes of […] and blood were mixed, centrifuged, and mixed again. 30 μl was transferred to a plate, and 170 μl of Drabkin's reagent was added. The 100% hemolysis value was indicated as Value A.
To determine the 0% hemolysis value, equal volumes of saline and blood were mixed. The 0% hemolysis value is indicated as Value B.
The dilutions were performed in glass or plastic tubes with a diameter of approximately 12 mm and a length of approximately 100 mm.
400 μl of whole blood was added to each tube. The components were carefully homogenized. The tubes were incubated for 10 minutes at 37° C., homogenized again and then centrifuged for 10 minutes at 2500×g. The contents of the tube were mixed for Value A (100% hemolysis) and then transferred 3 times 30 μl of each tube of the supernatant to a 96-well plate (flat bottom) and 170 μl of Drabkin's solution was added to each well containing solution. The plate was read in a plate reader at wavelength 540 nm.
For evaluation of the test results from the plate reader reading at wavelength 540 nm, the mean values of the triplicates were calculated. The percent hemolytic activity was determined according to the following formula:
wherein: % HA=percent hemolytic activity; A=Value for 100% HA; B=Value for 0% HA; C=Value for tested solution.
Dilutions of the co-solvents were prepared in tubes. An equal volume of human heparinized whole blood was added and homogenized. The test co-solvents were diluted in sterile, pyrogen-free water and sterile, pyrogen-free saline.
The following equation was used to obtain a curve fitting of the hemolysis data: […]
The maximal well tolerated co-solvent concentration was obtained by calculating the intersection of the sigmoidal curves with the horizontal line at hemolysis, i.e., 5%.

Molecule | tonicity of the solution [1] | co-solvent concentration at which significant (>10%) hemolysis is induced [2] | effect of switch from water for injection to saline as diluent on hemolytic behavior [2] | flocculation in hemolysis test [2] | hemolysis at the lowest tested co-solvent concentration (in words) [2] | max. well tolerated co-solvent concent [2] | hemolysis value [2]
Polyethylene glycol 400 [PEG 400] | close to isotonicity | 50-60% | did not drastically modify the hemolytic behavior | – | – | – | –
CCO [Ethanol] | clearly hypertonic | – | – | significant flocculation | high hemolysis | 29% | ~100%
Polyethylene glycol 300 [PEG 300] | isotonic | 60-70% | did not drastically modify the hemolytic behavior | – | – | – | –
CC(O)CO (stereo not drawn) [PG, Propylene glycol] | clearly hypertonic | – | – | – | high hemolysis | 48% | ~100%
